How the values were obtained:
Format in all cases: cell-based
AXL = AXL (Homo sapiens (Human), UniProt P30530); assay: AXL autophosphorylation ELISA in A-172 cells; settings: cellular, Gas6 stimulated
Outline: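 Serum-starved (24 h) A-172 glioblastoma cells pretreated 1 h with compounds (8-point curve, 0.3% DMSO), then stimulated 15 min with 1 μg/mL Gas6. Lysate phospho-AXL measured by sandwich ELISA against a phospho-AXL standard; IC50 from 4-parameter logistic fit between DMSO and reference-inhibitor controls.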

Mer = Mer (Homo sapiens (Human), UniProt Q12866); assay: Mer autophosphorylation ELISA in transient transfected 293A cells; settings: cellular, MERTK transfected 293A cells
Outline: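 293A cells transiently transfected with human MERTK DNA, then treated 1 h with 8-point compound dilutions in serum-free medium (0.3% DMSO). Phospho-Mer in lysates quantified by sandwich ELISA against phospho-Mer standard; normalised to DMSO (100%) and reference inhibitor (0%), IC50 from 4-parameter logistic fit.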

KDR = KDR (Homo sapiens (Human), UniProt P35968); assay: KDR autophosphorylation ELISA in HUVEC cells; settings: cellular, VEGF165 stimulated
Outline: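 HUVECs grown 24 h at 37 °C, then serum-starved 24 h, were preincubated 1 h with an 8-point compound series (0.3% DMSO) and stimulated with 100 ng/mL human VEGF165 for 5 min. Phospho-KDR in lysates was measured by sandwich ELISA against a phospho-KDR standard; IC50 from 4-parameter logistic fit.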

Chain of Mer (Q12866 21-999): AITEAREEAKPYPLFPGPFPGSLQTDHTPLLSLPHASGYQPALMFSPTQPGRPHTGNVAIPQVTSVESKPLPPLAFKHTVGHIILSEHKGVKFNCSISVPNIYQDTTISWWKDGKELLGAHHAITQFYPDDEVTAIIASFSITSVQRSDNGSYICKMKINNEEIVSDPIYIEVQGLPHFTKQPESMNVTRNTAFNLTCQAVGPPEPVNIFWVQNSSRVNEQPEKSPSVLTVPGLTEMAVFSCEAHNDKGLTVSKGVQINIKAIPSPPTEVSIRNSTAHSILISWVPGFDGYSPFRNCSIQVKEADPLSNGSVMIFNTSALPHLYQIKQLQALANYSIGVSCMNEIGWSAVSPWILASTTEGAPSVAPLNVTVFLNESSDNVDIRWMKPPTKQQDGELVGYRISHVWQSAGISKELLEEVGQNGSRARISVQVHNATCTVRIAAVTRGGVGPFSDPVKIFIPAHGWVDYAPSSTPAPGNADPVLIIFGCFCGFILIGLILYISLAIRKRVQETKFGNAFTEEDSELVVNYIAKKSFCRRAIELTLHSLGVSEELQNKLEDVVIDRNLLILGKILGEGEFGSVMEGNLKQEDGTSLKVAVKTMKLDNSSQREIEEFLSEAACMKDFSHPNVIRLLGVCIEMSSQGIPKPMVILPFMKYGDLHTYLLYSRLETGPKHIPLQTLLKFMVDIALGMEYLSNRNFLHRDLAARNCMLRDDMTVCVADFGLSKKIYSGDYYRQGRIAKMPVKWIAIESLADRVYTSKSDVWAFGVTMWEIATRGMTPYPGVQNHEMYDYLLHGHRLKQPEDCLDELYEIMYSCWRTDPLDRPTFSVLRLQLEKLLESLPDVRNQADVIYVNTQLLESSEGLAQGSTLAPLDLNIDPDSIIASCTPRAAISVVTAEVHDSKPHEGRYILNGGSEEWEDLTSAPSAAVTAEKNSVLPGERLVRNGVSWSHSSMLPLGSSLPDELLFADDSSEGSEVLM
Chain of AXL (P30530 26-894): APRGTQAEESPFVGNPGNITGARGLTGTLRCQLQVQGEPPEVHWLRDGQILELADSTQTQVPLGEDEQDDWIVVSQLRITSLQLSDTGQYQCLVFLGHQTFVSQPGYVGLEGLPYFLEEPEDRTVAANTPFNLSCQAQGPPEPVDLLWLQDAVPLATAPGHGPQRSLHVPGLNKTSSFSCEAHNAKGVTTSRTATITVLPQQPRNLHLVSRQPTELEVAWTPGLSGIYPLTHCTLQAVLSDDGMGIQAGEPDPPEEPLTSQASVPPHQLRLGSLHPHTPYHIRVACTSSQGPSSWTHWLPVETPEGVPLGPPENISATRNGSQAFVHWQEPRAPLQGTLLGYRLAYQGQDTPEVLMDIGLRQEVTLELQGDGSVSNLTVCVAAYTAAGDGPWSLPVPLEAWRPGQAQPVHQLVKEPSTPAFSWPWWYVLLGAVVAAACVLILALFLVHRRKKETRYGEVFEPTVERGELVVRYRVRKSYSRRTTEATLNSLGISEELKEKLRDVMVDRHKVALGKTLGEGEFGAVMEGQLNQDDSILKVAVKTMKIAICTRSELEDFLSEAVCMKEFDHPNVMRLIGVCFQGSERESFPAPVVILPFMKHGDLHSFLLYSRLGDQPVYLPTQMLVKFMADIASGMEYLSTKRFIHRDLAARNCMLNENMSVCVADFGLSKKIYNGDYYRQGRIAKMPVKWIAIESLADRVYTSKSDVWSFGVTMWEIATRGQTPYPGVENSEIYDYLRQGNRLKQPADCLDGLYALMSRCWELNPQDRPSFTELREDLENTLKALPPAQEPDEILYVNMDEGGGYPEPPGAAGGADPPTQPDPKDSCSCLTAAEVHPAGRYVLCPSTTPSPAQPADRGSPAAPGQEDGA
Chain of KDR (P35968 20-1356): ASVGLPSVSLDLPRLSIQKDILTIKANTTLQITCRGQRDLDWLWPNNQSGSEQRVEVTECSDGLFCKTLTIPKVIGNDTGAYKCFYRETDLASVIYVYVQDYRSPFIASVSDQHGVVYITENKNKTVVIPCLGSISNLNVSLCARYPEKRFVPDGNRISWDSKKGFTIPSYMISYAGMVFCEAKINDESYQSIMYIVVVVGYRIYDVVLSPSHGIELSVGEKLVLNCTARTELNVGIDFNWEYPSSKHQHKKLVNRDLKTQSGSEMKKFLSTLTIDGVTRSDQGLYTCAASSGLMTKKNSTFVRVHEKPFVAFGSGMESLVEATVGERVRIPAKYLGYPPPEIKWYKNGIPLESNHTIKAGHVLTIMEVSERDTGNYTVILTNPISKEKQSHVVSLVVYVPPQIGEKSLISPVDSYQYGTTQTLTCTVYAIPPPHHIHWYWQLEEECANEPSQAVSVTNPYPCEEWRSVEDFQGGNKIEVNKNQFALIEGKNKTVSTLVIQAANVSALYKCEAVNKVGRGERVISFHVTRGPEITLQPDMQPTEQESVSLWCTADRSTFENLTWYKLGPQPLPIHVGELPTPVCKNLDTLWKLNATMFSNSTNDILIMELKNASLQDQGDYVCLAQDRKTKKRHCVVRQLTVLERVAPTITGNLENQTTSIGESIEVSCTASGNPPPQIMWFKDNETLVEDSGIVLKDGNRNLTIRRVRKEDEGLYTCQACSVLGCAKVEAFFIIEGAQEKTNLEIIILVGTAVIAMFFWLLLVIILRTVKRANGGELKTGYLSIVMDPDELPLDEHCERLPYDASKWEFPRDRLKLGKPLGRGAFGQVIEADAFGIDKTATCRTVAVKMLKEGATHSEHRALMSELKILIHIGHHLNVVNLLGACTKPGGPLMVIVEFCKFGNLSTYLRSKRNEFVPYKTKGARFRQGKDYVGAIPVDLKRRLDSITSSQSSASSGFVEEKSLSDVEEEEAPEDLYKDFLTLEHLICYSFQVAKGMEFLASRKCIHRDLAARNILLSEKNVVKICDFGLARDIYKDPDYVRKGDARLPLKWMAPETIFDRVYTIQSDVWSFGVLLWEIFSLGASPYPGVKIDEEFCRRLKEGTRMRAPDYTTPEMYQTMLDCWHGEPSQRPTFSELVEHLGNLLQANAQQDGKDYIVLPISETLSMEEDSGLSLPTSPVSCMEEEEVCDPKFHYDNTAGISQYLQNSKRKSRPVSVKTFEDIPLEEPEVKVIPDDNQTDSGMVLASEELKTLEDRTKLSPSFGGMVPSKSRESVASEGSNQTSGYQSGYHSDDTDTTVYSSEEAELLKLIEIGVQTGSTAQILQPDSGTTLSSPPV

Structure (SMILES) | IC50 (AXL) [nM] | IC50 (Mer) [nM] | IC50 (KDR) [nM]
COc1cc2nccc(Oc3ccc(NC(=O)C4(C(=O)Nc5ccc(F)cc5)CC4)cc3F)c2cc1C(N)=O [Compound 133, 1-N′-[4-(6-carbamoyl-7-methoxyquinolin-4-yl)oxy-3-fluorophenyl]-1-N-(4-fluorophenyl)cyclopropane-1,1-dicarboxamide] | ≤ 10 | ≤ 10 | ≤ 10
COc1cc2nccc(Oc3ccc(NC(=O)C4(C(=O)Nc5ccc(F)cc5)CC4)cc3)c2cc1-c1ccn[nH]1 [Compound 185, 1-N′-(4-fluorophenyl)-1-N-[4-[7-methoxy-6-(1H-pyrazol-5-yl)quinolin-4-yl]oxyphenyl]cyclopropane-1,1-dicarboxamide] | 10 to 100 | ≤ 10 | ≤ 10
COc1cc2nccc(Oc3ccc(NC(=O)C4(C(=O)Nc5ccc(F)cc5)CC4)cc3)c2cc1-c1ncc[nH]1 [Compound 191, 1-N′-(4-Fluorophenyl)-1-N-[4-[6-(1H-imidazol-2-yl)-7-methoxyquinolin-4-yl]oxyphenyl]cyclopropane-1,1-dicarboxamide] | ≤ 10 | ≤ 10 | ≤ 10
COc1cc2nccc(Oc3ccc(NC(=O)C4(C(=O)Nc5ccc(F)cc5)CC4)cc3)c2cc1-c1cnn(C)c1 [Compound 182, 1-N′-(4-fluorophenyl)-1-N-[4-[7-methoxy-6-(1-methylpyrazol-4-yl)quinolin-4-yl]oxyphenyl]cyclopropane-1,1-dicarboxamide] | ≤ 10 | ≤ 10 | ≤ 10
COc1cc2nccc(Oc3ccc(NC(=O)C4(C(=O)Nc5ccc(F)cc5)CC4)cc3Cl)c2cc1C(N)=O [Compound 132, 1-N′-[4-(6-carbamoyl-7-methoxyquinolin-4-yl)oxy-3-chlorophenyl]-1-N-(4-fluorophenyl)cyclopropane-1,1-dicarboxamide] | ≤ 10 | ≤ 10 | ≤ 10
Cc1cc2c(Oc3ccc(NC(=O)C4(C(=O)Nc5ccc(F)cc5)CC4)cc3)ccnc2cc1C(N)=O [Compound 142, 1-N-[4-(7-carbamoyl-6-methylquinolin-4-yl)oxyphenyl]-1-N′-(4-fluorophenyl)cyclopropane-1,1-dicarboxamide] | 10 to 100 | 10 to 100 | 10 to 100
COc1cc2nccc(Oc3ccc(NC(=O)C4(C(=O)Nc5ccc(F)cc5)CC4)cc3)c2cc1C(N)=O [Compound 7, 1-N-[4-(6-carbamoyl-7-methoxyquinolin-4-yl)oxyphenyl]-1-N′-(4-fluorophenyl)cyclopropane-1,1-dicarboxamide] | ≤ 10 | ≤ 10 | ≤ 10
COc1cc2nccc(Oc3ccc(NC(=O)C4(C(=O)Nc5ccc(F)cc5)CC4)cc3)c2cc1S(N)(=O)=O [Compound 206, 1-N′-(4-Fluorophenyl)-1-N-[4-(7-methoxy-6-sulfamoylquinolin-4-yl)oxyphenyl]cyclopropane-1,1-dicarboxamide] | ≤ 10 | 10 to 100 | ≤ 10
CNC(=O)c1cc2c(Oc3ccc(NC(=O)C4(C(=O)Nc5ccc(F)cc5)CC4)cc3Cl)ccnc2cc1OC [Compound 134, 1-N′-[3-chloro-4-[7-methoxy-6-(methylcarbamoyl)quinolin-4-yl]oxyphenyl]-1-N-(4-fluorophenyl)cyclopropane-1,1-dicarboxamide] | ≤ 10 | ≤ 10 | ≤ 10
CNC(=O)c1ccc2c(Oc3ccc(NC(=O)C4(C(=O)Nc5ccc(F)cc5)CC4)cc3)ccnc2c1 [Compound 165, 1-N′-(4-fluorophenyl)-1-N-[4-[7-(methylcarbamoyl)quinolin-4-yl]oxyphenyl]cyclopropane-1,1-dicarboxamide] | 10 to 100 | 10 to 100 | ≤ 10
CN1CC(NC(=O)c2ccc3nccc(Oc4ccc(NC(=O)C5(C(=O)Nc6ccc(F)cc6)CC5)cc4)c3c2)C1 [Compound 60, 1-N′-(4-fluorophenyl)-1-N-[4-[6-[(1-methylazetidin-3-yl)carbamoyl]quinolin-4-yl]oxyphenyl]cyclopropane-1,1-dicarboxamide] | 100 to 300 | – | > 300
COc1cc2nccc(Oc3ccc(NC(=O)C4(C(=O)Nc5ccc(F)cc5)CC4)cc3)c2cc1C(=O)N1CCC1 [Compound 15, 1-N-[4-[6-(azetidine-1-carbonyl)-7-methoxyquinolin-4-yl]oxyphenyl]-1-N′-(4-fluorophenyl)cyclopropane-1,1-dicarboxamide] | 10 to 100 | – | > 300
COc1cc2nccc(Oc3ccc(NC(=O)C4(C(=O)Nc5ccc(F)cc5)CC4)cc3F)c2cc1C(=O)O [Compound 131, 4-[2-fluoro-4-[[1-[(4-fluorophenyl)carbamoyl]cyclopropanecarbonyl]amino]phenoxy]-7-methoxyquinoline-6-carboxylic acid] | > 300 | – | > 300
NC(=O)c1cc2c(Oc3ccc(NC(=O)C4(C(=O)Nc5ccc(F)cc5)CC4)cc3)ccnc2cc1OCCCN1CCOCC1 [Compound 98, 1-N-[4-[6-carbamoyl-7-(3-morpholin-4-ylpropoxy)quinolin-4-yl]oxyphenyl]-1-N′-(4-fluorophenyl)cyclopropane-1,1-dicarboxamide] | ≤ 10 | 10 to 100 | ≤ 10
CNC(=O)c1cc2c(Oc3ccc(NC(=O)C4(C(=O)Nc5ccc(F)cc5)CC4)cc3)ccnc2cc1OC [Compound 8, 1-N′-(4-fluorophenyl)-1-N-[4-[7-methoxy-6-(methylcarbamoyl)quinolin-4-yl]oxyphenyl]cyclopropane-1,1-dicarboxamide] | ≤ 10 | ≤ 10 | ≤ 10
COCCOc1cc2nccc(Oc3ccc(NC(=O)C4(C(=O)Nc5ccc(F)cc5)CC4)cc3)c2cc1C(N)=O [Compound 103, 1-N-[4-[6-carbamoyl-7-(2-methoxyethoxy)quinolin-4-yl]oxyphenyl]-1-N′-(4-fluorophenyl)cyclopropane-1,1-dicarboxamide] | ≤ 10 | – | ≤ 10
COC(=O)c1ccc2c(Oc3ccc(NC(=O)C4(C(=O)Nc5ccc(F)cc5)CC4)cc3)ccnc2c1 [Compound 162, methyl 4-[4-[[1-[(4-fluorophenyl)carbamoyl]cyclopropanecarbonyl]amino]phenoxy]quinoline-7-carboxylate] | > 300 | – | 10 to 100
COc1cc2nccc(Oc3ccc(NC(=O)C4(C(=O)Nc5ccc(F)cc5)CC4)cc3)c2cc1-c1ccc(C)o1 [Compound 180, 1-N′-(4-fluorophenyl)-1-N-[4-[7-methoxy-6-(5-methylfuran-2-yl)quinolin-4-yl]oxyphenyl]cyclopropane-1,1-dicarboxamide] | ≤ 10 | – | 10 to 100

Other lines, results leading:

IC50 (AXL) [nM] | IC50 (Mer) [nM] | IC50 (KDR) [nM] | Structure (SMILES)
≤ 10 | ≤ 10 | ≤ 10 | COc1cc2nccc(Oc3ccc(NC(=O)C4(C(=O)Nc5ccc(F)cc5)CC4)cc3)c2cc1-c1nnco1 [Compound 220, 1-N′-(4-Fluorophenyl)-1-N-[4-[7-methoxy-6-(1,3,4-oxadiazol-2-yl)quinolin-4-yl]oxyphenyl]cyclopropane-1,1-dicarboxamide]
≤ 10 | 10 to 100 | 10 to 100 | NC(=O)c1ccc2c(Oc3ccc(NC(=O)C4(C(=O)Nc5ccc(F)cc5)CC4)cc3)ccnc2c1 [Compound 164, 1-N-[4-(7-carbamoylquinolin-4-yl)oxyphenyl]-1-N′-(4-fluorophenyl)cyclopropane-1,1-dicarboxamide]
10 to 100 | – | 10 to 100 | COC(=O)c1cc2nccc(Oc3ccc(NC(=O)C4(C(=O)Nc5ccc(F)cc5)CC4)cc3)c2cc1C [Compound 140, methyl 4-[4-[[1-[(4-fluorophenyl)carbamoyl]cyclopropanecarbonyl]amino]phenoxy]-6-methylquinoline-7-carboxylate]
> 300 | – | > 300 | COc1cc2nccc(Oc3ccc(NC(=O)C4(C(=O)Nc5ccc(F)cc5)CC4)cc3Cl)c2cc1C(=O)O [Compound 130, 4-[2-chloro-4-[[1-[(4-fluorophenyl)carbamoyl]cyclopropanecarbonyl]amino]phenoxy]-7-methoxyquinoline-6-carboxylic acid]
10 to 100 | – | ≤ 10 | COC(=O)c1cc2c(Oc3ccc(NC(=O)C4(C(=O)Nc5ccc(F)cc5)CC4)cc3)ccnc2cc1OC [Compound 5, methyl 4-[4-[[1-[(4-fluorophenyl)carbamoyl]-cyclopropanecarbonyl]amino]-phenoxy]-7-methoxyquinoline-6-carboxylate]
100 to 300 | – | 100 to 300 | NC(=O)c1cc2c(Oc3ccc(NC(=O)C4(C(=O)Nc5ccc(F)cc5)CC4)cc3)ccnc2cc1F [Compound 67, 1-N-[4-(6-carbamoyl-7-fluoroquinolin-4-yl)oxyphenyl]-1-N′-(4-fluorophenyl)cyclopropane-1,1-dicarboxamide]
≤ 10 | ≤ 10 | ≤ 10 | COc1cc2nccc(Oc3ccc(NC(=O)C4(C(=O)Nc5ccc(F)cc5)CC4)cc3)c2cc1-c1ncco1 [Compound 45, 1-N′-(4-fluorophenyl)-1-N-[4-[7-methoxy-6-(1,3-oxazol-2-yl)quinolin-4-yl]oxyphenyl]cyclopropane-1,1-dicarboxamide]
10 to 100 | – | 100 to 300 | CNC(=O)c1cc2nccc(Oc3ccc(NC(=O)C4(C(=O)Nc5ccc(F)cc5)CC4)cc3)c2cc1C [Compound 143, 1-N′-(4-fluorophenyl)-1-N-[4-[6-methyl-7-(methylcarbamoyl)quinolin-4-yl]oxyphenyl]cyclopropane-1,1-dicarboxamide]

Reference: patent US11542259B2, “Compounds for the treatment of kinase-dependent disorders” (Exelixis, Inc., priority 2018, dated 2023)
